From US5373040A, “Amorphous solid modification of 2,2',2"-nitrilo[triethyl-tris-(3,3',5,5'-tetra-tert-butyl-1,1'-biphenyl- 2,2'-diyl)phosphite]” (Ciba-Geigy Corporation, priority 1993, dated 1994)

Tests used:
[1] = Process stabilization of polypropylene at 525° F.: melt flow rate (ASTM D1238); conditions: in the presence of a representative phenolic antioxidant; versus prior art compound of U.S. Pat. No. 4,318,845
Experimental: The test additives are incorporated into the polypropylene by dry blending or, when the additive is a liquid, using a minimum amount of methylene chloride solvent. The solvent is then removed by evaporation under reduced pressure.
After each of the first, third and fifth extrusions, the melt flow rate (in grams/10 minutes) is determined by ASTM method D1238 on the pellets obtained from the extruder.

[2] = Apparent bulk density (ASTM D-1895); type: physicochemical
Experimental: The apparent bulk density of the solids is measured according to the method of ASTM D-1895 (79). A higher apparent bulk density allows for a greater mass per unit volume which affords advantages in packaging of the solid product, such as lower costs for the packaging material, less storage space is required, etc.

[3] = Solubility in LLDPE film by diffusion-in, X-ray fluorescence; type: physicochemical
Experimental: Experiments are carried out to determine the solubility of the instant compound into linear low density polyethylene (LLDPE) films at 20° C., 40° C. and 60° C. by diffusion-in of a relatively homogeneous particle size (<70 microns) of the test sample suspended in silicon oil.
Each sample is carefully ground with a mortar and pestle and the particle size below 70 microns is separated by sieving with a 200 mesh screen. The powder is then suspended in silicon oil (polydimethylsiloxane, L-45, Union Carbide Chemicals) at a concentration of approximately 38% (wt/wt). A few drops of this suspension is placed on a 10 mil (0.254 mm) thick, 2"×2" (5.08 cm×5.08 cm) compression molded film and a second film of the same dimension is placed on top. The films are gently pressed together so that the suspension forms a thin liquid layer between the polymer films. Excess suspension is removed and the procedure is repeated till a stack of eight films (six films for evaluation) are prepared. The stack is then placed between two 2.5"×2.5" (6.35 cm×6.35 cm) ceramic tiles and wrapped in aluminum foil and held together with a G-clamp. Each stack is aged at 20° C., 40° C. and 60° C. under a nitrogen atmosphere. At specified intervals, a single film is removed from the stack and the excess suspension is washed from the film with hexane. The film is then analyzed by X-ray fluorescence for total phosphorus content. LLDPE containing 0, 1000 ppm and 2000 ppm of the test compound are used as standard controls for this X-ray fluorescence method.

[4] = Stabilization of 6,6-nylon: yellowness index; conditions: 0.5% by weight; versus unstabilized control plaques
Experimental: 6,6-Nylon (ZYTEL® 101, DuPont) is thoroughly dried in a vacuum oven and tumble blended with 0.5% by weight of the compound of instant Example 1. The polyamide is extruded on a 1" (2.54 cm) MPM extruder at 575° F. (302° C.). The collected pellets are injection molder at 575° F. (302° C.) with the mold at 150° C. in a BOY 30M injection molder. The plaques obtained are measured for yellowness index (YI) values using ASTM D1925-70.

[5] = Stabilization of poly(butylene terephthalate): yellowness index; conditions: 0.3% by weight; versus control unstabilized PBT
Experimental: Poly(butylene terephthalate), PBT (RYNITE® 9160, DuPont) is tumble blended with 0.3% by weight of the compound of instant Example 1. The polymer is then extruded and pelletized at 260° C. A portion of the collected pellets are reextruded under the same conditions for a second pass. The remainder from the first extrusion is injection molded into 2"×2"×125 mil (5.08 cm×5.08 cm×3.175 mm) plaques at 540° F. (282° C.) with a 100° C. mold temperature in a BOY 30M molder. Intrinsic viscosities of the second pass extrudate and the injection molded plaques are determined.
The plaques are measured for yellowness index (color) using ASTM D 1925-70.

[6] = Stabilization of ABS: yellowness index; conditions: 0.25 g per 100 g of ABS; air oven at 180° C. for 45 minutes; versus unstabilized ABS resin
Experimental: A solution of 0.25 g of the instant compound of Example 1 in 40 ml of hexane/methanol is added to a rapidly stirred suspension of 100 g of ABS (acrylonitrile/butadiene/styrene terpolymer) in 600 g of water. The suspension is filtered and dried under vacuum at 40° C. for 40 hours. To the dried powder is added 2% by weight of titanium dioxide and 1% by weight of N,N'-ethylenebisstearamide on a two roll mill at 180° C. over four minutes. Compression molded plaques (0.8 mm) are prepared at 175° C. and placed in an air oven at 180° C. for 45 minutes. The color of said plaques are determined as yellowness index values using ASTM D1925-70.

Compound: CC(C)(C)c1cc(C(C)(C)C)c2op(OCCN(CCOp3oc4c(C(C)(C)C)cc(C(C)(C)C)cc4c4cc(C(C)(C)C)cc(C(C)(C)C)c4o3)CCOp3oc4c(C(C)(C)C)cc(C(C)(C)C)cc4c4cc(C(C)(C)C)cc(C(C)(C)C)c4o3)oc3c(C(C)(C)C)cc(C(C)(C)C)cc3c2c1 [Example 1, 2,2',2"-nitrilo[triethyl-tris-(3,3',5,5'-tetra-tert-butyl-1,1'-biphenyl-2,2'-diyl)phosphite]]
- stabilizing polypropylene against thermal and oxidative degradation (change in melt flow rate) [1]: equal or more effective
- Bulk Density [2]: 0.49 g/mL
- Solubility of Compound in LLDPE at 20° C. ([3]; interval 15 (time unit not given)): 7200 ppm
- Solubility of Compound in LLDPE at 20° C. ([3]; interval 28 (time unit not given)): 5100 ppm
- Solubility of Compound in LLDPE at 20° C. ([3]; interval 35 (time unit not given)): 3800 ppm
- Solubility of Compound in LLDPE at 20° C. ([3]; interval 44 (time unit not given)): 4700 ppm
- Solubility of Compound in LLDPE at 40° C. ([3]; interval 10 (time unit not given)): 2500 ppm
- Solubility of Compound in LLDPE at 40° C. ([3]; interval 17 (time unit not given)): 2100 ppm
- Solubility of Compound in LLDPE at 40° C. ([3]; interval 25 (time unit not given)): 2400 ppm
- Solubility of Compound in LLDPE at 40° C. ([3]; interval 34 (time unit not given)): 1700 ppm
- Solubility of Compound in LLDPE at 40° C. ([3]; interval 40 (time unit not given)): 1900 ppm
- Solubility of Compound in LLDPE at 40° C. ([3]; interval 47 (time unit not given)): 2200 ppm
- Solubility of Compound in LLDPE at 20° C. ([3]; third section, interval 6 (time unit not given)): 3400 ppm
- Solubility of Compound in LLDPE at 20° C. ([3]; third section, interval 14 (time unit not given)): 4000 ppm
- Solubility of Compound in LLDPE at 20° C. ([3]; third section, interval 22 (time unit not given)): 4500 ppm
- Solubility of Compound in LLDPE at 20° C. ([3]; third section, interval 28 (time unit not given)): 3800 ppm
- Solubility of Compound in LLDPE at 20° C. ([3]; third section, interval 37 (time unit not given)): 4100 ppm
- solubility in LLDPE ([3]; versus prior art compound of Example 4 of U.S. Pat. No. 4,318,845): far more soluble
- yellowness index (YI) [4]: lower YI values (less discoloration)
- yellowness index (color) [5]: lower YI values (less discoloration)
- yellowness index [6]: lower yellowness index values (less discoloration)
